Measurements published in ChEMBL document CHEMBL1154198, “Chemical genetics of Plasmodium falciparum” (Nature, 2010).

What was measured:
Plasmodium falciparum [1] = assay: ST_JUDE: Plasmodium falciparum 3D7 EC50 (uM) as measured by SYBR green dye; type: functional, organism-based
Plasmodium falciparum [2] = assay: ST_JUDE: Plasmodium falciparum K1 EC50 (uM) as measured by SYBR green dye; type: functional, organism-based

| Compound | EC50 (Plasmodium falciparum [1]) | EC50 (Plasmodium falciparum [2]) |
| --- | --- | --- |
| CCOC(=O)c1ccc(-n2[nH]c(-c3ccccc3)cc2=O)cc1 | > 15 µM | 8.96 µM |
| O=C(c1cccc(Cl)c1)N1CCN(c2ccc([N+](=O)[O-])c(NC3CC3)c2)CC1 | 3.76 µM | 3.68 µM |
| CCCOc1ccccc1C(=O)Nc1nonc1-c1ccc(OCC)c(OCC)c1 | > 15 µM | 0.595 µM |
| COc1ccccc1Cn1ccnc1SCC(=O)Nc1cccc(C(F)(F)F)c1 | 1.47 µM | 1.59 µM |
| Cc1cccc(-n2ccnc2SCC(=O)Nc2cc(C(F)(F)F)ccc2Cl)c1 | > 15 µM | > 15 µM |
| CN1CCN(c2ccc(Nc3ccnc4cc(Cl)ccc34)cc2Cl)CC1 | 0.0625 µM | 0.0571 µM |
| O=C1CC(c2ccc(F)cc2F)C2=C(CC(c3ccc(F)cc3)CC2=O)N1 (centres undefined) | 4.71 µM | 0.73 µM |
| CCN1CCN(CCCNC(=O)c2cc3cc4ccc(Cl)cc4nc3o2)CC1 | 4.54 µM | > 15 µM |
| COc1ccc(CN2CCN(CC(C)(C)C)C(CCO)C2)c(O)c1 (centres undefined) | 7.57 µM | 3.73 µM |
| COc1ccc(OC)c(C2C(C(=O)OC(C)C)=C(C)N=c3s/c(=C\c4ccc(O)cc4)c(=O)n32)c1 (centres undefined) | > 15 µM | 1.39 µM |
| COc1cc(CNCCCN(C)C)ccc1OCc1ccc(F)cc1Cl | 1.59 µM | 6.63 µM |
| CCOC(=O)c1oc2c(c1C)-c1nn(Cc3ccc(C)cc3)cc1CC2 | 3.14 µM | 2.16 µM |
| CO/C(O)=C1\C(C)=NC2=C(C(=O)CC(c3ccccc3OC)C2)C1c1ccc([N+](=O)[O-])cc1 (centres undefined) | 3.83 µM | > 15 µM |
| CCC(=O)Oc1cccc2ccc(/C=C/c3cc4c(cc3Cl)OCO4)nc12 | > 15 µM | > 15 µM |
| O=C(Cc1ccccc1)N(Cc1cccnc1)c1nc2ccc(Cl)cc2s1 | > 15 µM | > 15 µM |
| C=CCN1C(=O)c2[nH]nc(-c3c(C)cc(C)cc3O)c2C1c1cccc(OCC)c1 (centres undefined) | 3.52 µM | 2.83 µM |
| CCOc1ccc(C2c3cccn3CCN2C(=O)NCc2ccccc2)cc1 (centres undefined) | 3.98 µM | > 15 µM |
| CCOc1cc(CN(C)Cc2nnc(SCc3ccccc3C)n2CC2CCCO2)ccc1OC (centres undefined) | 2.29 µM | 2.42 µM |
| CC(C)CCNCC(O)CON=C1c2ccccc2-c2ccccc21 (centres undefined) | 1.71 µM | 0.735 µM |
| O=C1C(Nc2ccc(I)cc2)=C(N2CCOCC2)C(=O)c2ccccc21 | 0.256 µM | 0.181 µM |
| NNc1nc(Nc2ccc(F)cc2)nc(N2CCOCC2)n1 | 7.07 µM | 5.15 µM |
| COc1ccc(C2N(C)c3ccccc3N2C)cc1 | > 15 µM | > 15 µM |

| Compound | EC50 (Plasmodium falciparum [1]) | EC50 (Plasmodium falciparum [2]) |
| --- | --- | --- |
| N=C(N/N=C\c1ccc(Br)cc1)N/N=C\c1ccc(Br)cc1 | 2.3 µM | > 15 µM |
| COc1ccc2c(=O)cc(C(Cl)(Cl)Cl)oc2c1 | > 15 µM | 1.54 µM |
| Cc1ccc(Nc2nc(N)c3ccccc3n2)cc1Cl | > 15 µM | > 15 µM |
| CCCN1CCN(CCCNC(=O)c2ccc3c(c2)sc2nc(-c4cccc(OC)c4)cn23)CC1 | 1.21 µM | 3.18 µM |
| CCCCCCn1c(=N)n(CC(O)COc2cccc(C)c2)c2ccccc21 (centres undefined) | 1.97 µM | 0.725 µM |
| CC/C(=C\c1sc2ccc(OC)cc2[n+]1CC)SC | 1.33 µM | > 15 µM |
| Oc1c(C(Nc2ccccn2)c2cccc(Cl)c2)cc(Cl)c2cccnc12 (centres undefined) | 7.66 µM | 4.69 µM |
| O=C(Cc1ccc(Cl)cc1)Nc1cc(C(F)(F)F)cc(C(F)(F)F)c1 | > 15 µM | 5.13 µM |
| COc1ccc(N2CCN(C3CCCN(Cc4cccc(SC)c4)C3)CC2)cc1 (centres undefined) | > 15 µM | > 15 µM |
| COc1cc(Cl)c(NC(=O)c2cc3ccccc3cc2O)c(OC)c1 | > 15 µM | > 15 µM |
| CCO/C(O)=C1\C(C)=NC2=C(C(=O)CC(c3ccc(OC)c(OC)c3)C2)C1c1cccc([N+](=O)[O-])c1 (centres undefined) | > 15 µM | > 15 µM |
| O=[N+]([O-])c1ccc(C2Nc3c(O)ccc(Br)c3C3C=CCC32)cc1 (centres undefined) | 7 µM | 2.71 µM |
| CCc1cccc(NC(=O)C2c3ccccc3C(=O)N(CCOC)C2c2cccs2)c1 (centres undefined) | 3.81 µM | 4.14 µM |
| CCOC(=O)C(C)Oc1cccc2c(=O)n(CC(=O)Nc3ccccc3C(F)(F)F)ccc12 (centres undefined) | > 15 µM | > 15 µM |
| Cc1cc(N2CCN(C)CC2)nc2ccc(NC(=S)NC3CCN(Cc4ccccc4)CC3)cc12 | 1.2 µM | 5.8 µM |
| COc1ccc(OC)c2sc(N(Cc3cccnc3)C(=O)c3cccc(Cl)c3)nc12 | > 15 µM | 1.65 µM |
| COc1ccc(OCC(O)CN2CCN(c3ccc(OC)cc3)CC2)cc1 (centres undefined) | > 15 µM | > 15 µM |
| O=S(=O)(Nc1ccc(-c2ccc(N3CCCC3)nn2)cc1)c1ccc(Br)cc1 | > 15 µM | > 15 µM |
| COc1ccc(CCNC(=S)Nc2ccccc2Cl)cc1Br | 0.96 µM | 1.6 µM |
| COc1ccc(CCNC(=S)Nc2cccc(Cl)c2)cc1OC | 5.39 µM | 3.98 µM |
| CCN(CC)CCOc1ccc2c(c1)C(=NO)c1cc(OCCN(CC)CC)ccc1-2 | 1.49 µM | 2.27 µM |
| COCCN1CCC(CN(Cc2ccncc2)Cc2ccc(CC(C)C)cc2)CC1 | 6.73 µM | 5.3 µM |

| Compound | EC50 (Plasmodium falciparum [1]) | EC50 (Plasmodium falciparum [2]) |
| --- | --- | --- |
| CN(C)CCNC(=O)c1ccc2c(c1)sc1nc(-c3ccc(F)cc3)cn12 | 3.19 µM | 3.54 µM |
| CC(C)CC(=O)NC(NC(=S)Nc1cccc(Cl)c1)C(Cl)(Cl)Cl (centres undefined) | 1.73 µM | 2.5 µM |
| CN(C)CCCNc1c2c(nc3ccccc13)CCC2 | > 15 µM | > 15 µM |
| CCN(CC)C(=O)CSc1nc2cc(OC)c(OC)cc2c2nc(-c3ccccc3)nn12 | > 15 µM | 0.335 µM |
| Oc1cccnc1NC(c1ccc(Cl)cc1)c1ccc2cccnc2c1O (centres undefined) | 3.76 µM | 5.59 µM |
| Cc1nc2ccc(/N=C/c3ccc(N(C)C)cc3)cc2s1 | > 15 µM | > 15 µM |
| CCCN(CCC)C(=O)c1ccc2c(Cl)c3c(nc2c1)CCCC3 | > 15 µM | > 15 µM |
| CCOc1ccccc1NC(=O)C(C)Oc1cccc(Br)c1 (centres undefined) | > 15 µM | > 15 µM |
| O=C(/C=C/c1ccco1)Nc1ccc(C(F)(F)F)cc1 | > 15 µM | > 15 µM |
| O=S(=O)(NCC(c1cccnc1)N1CCN(c2ccccc2F)CC1)c1ccc(F)cc1 (centres undefined) | > 15 µM | 5.33 µM |
| CCOC(=O)C1=C(C)N=c2s/c(=C\c3ccc(O)c(OC)c3)c(=O)n2C1c1ccc(F)cc1 (centres undefined) | > 15 µM | 2.26 µM |
| O=C(O)c1cccc(NC2=C(n3nnc4ccccc43)C(=O)c3ccccc3C2=O)c1 | > 15 µM | 4.19 µM |
| Cc1nc2nc(NCc3cccc(Br)c3)nn2c(O)c1C | > 15 µM | > 15 µM |
| CCOC(=O)c1ccc2nc(C)cc(Nc3ccc(C)cc3C)c2c1 | > 15 µM | > 15 µM |
| COc1ccccc1N1CCN(C(CNS(=O)(=O)c2ccc(Cl)cc2)c2cccnc2)CC1 (centres undefined) | > 15 µM | 4.64 µM |
| O=C(N/N=C/c1nc2ccccc2[nH]1)c1cccc(Cl)c1 | 1.65 µM | > 15 µM |
| C[n+]1ccn2c3c(c4cc(C5CCCCC5)ccc42)CCCc31 | > 15 µM | 2.34 µM |
| CC1=C(C)CC2C(=O)C3=C(C(=O)C2C1)C1c2ccccc2C3c2ccccc21 (centres undefined) | 3.15 µM | 1.62 µM |
| Cc1ccc(Nc2cc(C)nc(N3CCN(C(=O)Nc4cccc(Cl)c4)CC3)n2)cc1 | > 15 µM | > 15 µM |
| CC(=O)N1CCc2c(sc(NC(=O)c3ccc(C)c(C)c3)c2C(N)=O)C1 | > 15 µM | > 15 µM |
| CCc1ccc2nc(N(Cc3cccnc3)C(C)=O)sc2c1 | > 15 µM | > 15 µM |
| COc1ccc(C(=O)Nc2cccc(-c3nc4ccccc4s3)c2)cc1[N+](=O)[O-] | > 15 µM | > 15 µM |

| Compound | EC50 (Plasmodium falciparum [1]) | EC50 (Plasmodium falciparum [2]) |
| --- | --- | --- |
| CCOc1ccc(/C=C(/C#N)c2nc3ccccc3[nH]2)cc1OC | 3.39 µM | 4.68 µM |
| O=[N+]([O-])c1cccc(NC(=S)Nc2ccc(OC(F)F)c(Cl)c2)c1 | 6.66 µM | 4.46 µM |
| CC(=O)c1cccc(NC(=O)C2c3ccccc3C(=O)N(C3CCCC3)C2c2cccs2)c1 (centres undefined) | 1.75 µM | 2.02 µM |
| CN(C)CCCNCc1ccc2[nH]c3ccccc3c2c1 | 0.35 µM | > 15 µM |
| COc1cc(/C=C(\C#N)C(=O)Nc2ccccc2F)cc(OC)c1OC | > 15 µM | > 15 µM |
| COc1ccc(NC(=O)c2sc3ccccc3c2Cl)c(OC)c1 | > 15 µM | > 15 µM |
| Cc1cccc(C2CC(=O)NC3=C2C(=O)CC(c2ccccc2Cl)C3)c1 (centres undefined) | > 15 µM | 4.42 µM |
| CCOc1ccc2nc(C)cc(Nc3ccc(N4CCOCC4)cc3)c2c1 | 0.982 µM | 6.36 µM |
| Cc1cccc2sc(N(Cc3cccnc3)C(=O)C3CCCCC3)nc12 | 3.44 µM | 2.42 µM |
| Cc1cc(C)cc(Nc2nc(NCC3CCCO3)c3ccccc3n2)c1 (centres undefined) | 1.6 µM | 1.79 µM |
| COc1ccc(N2C(=O)c3cccnc3C2Nc2ccc(C)cc2Cl)cc1 (centres undefined) | 4 µM | 3.84 µM |
| O=C(Nc1ccc(Cl)cc1C(O)c1ccccc1)c1cnn2c1NC(c1ccccc1)CC2C(F)(F)F (centres undefined) | 0.765 µM | 0.5 µM |
| OC(CN1CCN(C/C=C/c2ccccc2)CC1)Cn1c2ccccc2c2ccccc21 (centres undefined) | 1.4 µM | 0.65 µM |
| Cc1cc(C)c2c(=O)cc(C(Cl)(Cl)Cl)oc2c1 | > 15 µM | > 15 µM |
| COc1ccc2nc(N(Cc3cccnc3)C(=O)CCc3ccccc3)sc2c1 | > 15 µM | 3.53 µM |
| CCOC(=O)C1=C(c2ccc(F)cc2)C(=O)c2ccccc2C1=O | 2.28 µM | 1.71 µM |
| Cc1cccc2sc(N(Cc3cccnc3)C(=O)c3ccco3)nc12 | 6.82 µM | 5.31 µM |
| CC(C)OC(=O)c1cc(NC(=S)Nc2ccc([N+](=O)[O-])cc2)cc(C(=O)OC(C)C)c1 | > 15 µM | 1.55 µM |
| COc1ccc2sc(N(Cc3cccnc3)C(=O)c3ccc(F)cc3)nc2c1 | > 15 µM | 1.49 µM |
| Cc1n(C)c2ccccc2[n+]1CC(=O)c1ccc([N+](=O)[O-])cc1 | 1.61 µM | 2.09 µM |
| CCCCOc1ccc(NC2=C(N3CCCCC3)C(=O)c3ccccc3C2=O)cc1 | 0.0145 µM | 0.0135 µM |
